Laboratory results reported in the Kinase Knowledgebase extract (Sharma et al. 2016).

Target: MAPK14 (human) (UniProt Q16539)
Assay: Inhibition of MAPK14 Kinase Activity

Chain of MAPK14 (human) (Q16539 whole entry, looked up): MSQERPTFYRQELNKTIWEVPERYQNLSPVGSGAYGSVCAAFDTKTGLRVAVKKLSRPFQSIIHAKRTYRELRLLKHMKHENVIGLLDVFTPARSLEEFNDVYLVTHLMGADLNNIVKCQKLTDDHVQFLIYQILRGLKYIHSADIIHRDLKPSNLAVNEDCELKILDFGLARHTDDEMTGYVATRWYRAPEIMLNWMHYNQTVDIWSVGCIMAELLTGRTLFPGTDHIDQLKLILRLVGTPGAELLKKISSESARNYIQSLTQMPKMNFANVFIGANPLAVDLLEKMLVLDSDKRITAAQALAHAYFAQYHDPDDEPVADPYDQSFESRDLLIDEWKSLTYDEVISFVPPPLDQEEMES

SMILES | IC50
CNC(=O)c1sc2c(ccc(=O)n2-c2ccccc2)c1Nc1ccccc1 | ≤ 1000 nM
Cc1ccccc1Nc1c(C#N)sc2c1ccc(=O)n2-c1ccccc1 | ≤ 1000 nM
O=C(c1sc2c(ccc(=O)n2-c2ccccc2)c1Nc1ccc(F)cc1F)N1CCCC1 | ≤ 1000 nM
NC(=O)c1sc2c(ccc(=O)n2-c2ccccc2)c1Nc1cccc(C(F)(F)F)c1 | ≤ 1000 nM
CCN(CC)CCNC(=O)c1sc2c(ccc(=O)n2-c2ccccc2)c1Nc1ccccc1 | ≤ 1000 nM
CN1CCN(CCCNC(=O)c2sc3c(ccc(=O)n3-c3ccccc3)c2Nc2ccccc2)CC1 | ≤ 1000 nM
CCOC(=O)c1sc2c(ccc(=O)n2-c2ccccc2)c1N(C)c1ccccc1 | ≤ 1000 nM
N#Cc1ccccc1Nc1c(C(N)=O)sc2c1ccc(=O)n2-c1ccsc1 | ≤ 1000 nM
Cc1ccc(Nc2c(C(N)=O)sc3c2ccc(=O)n3CC2CC2)c(C)c1 | ≤ 1000 nM
Cc1cccc(Nc2c(C(N)=O)sc3c2ccc(=O)n3-c2ccc(F)cc2)c1 | ≤ 1000 nM
O=C(NCCCn1ccnc1)c1sc2c(ccc(=O)n2-c2ccccc2)c1Nc1ccccc1 | ≤ 1000 nM
O=C(NCCN1CCOCC1)c1sc2c(ccc(=O)n2-c2ccccc2)c1Nc1ccccc1 | ≤ 1000 nM
N#Cc1sc2c(ccc(=O)n2-c2ccccc2)c1Nc1cccc(Cl)n1 | ≤ 1000 nM
CCOC(=O)c1sc2c(ccc(=O)n2-c2ccccc2)c1Nc1ccc(F)c(Cl)c1 | ≤ 1000 nM
CCOC(=O)c1sc2c(ccc(=O)n2-c2ccccc2)c1Nc1ccc(C#N)cc1 | ≤ 1000 nM
CCOC(=O)c1sc2c(ccc(=O)n2-c2ccccc2)c1Nc1cc(C)ccc1C#N | ≤ 1000 nM
CCOC(=O)c1sc2c(c(C)cc(=O)n2-c2ccccc2)c1Nc1ccccc1 | ≤ 1000 nM
CON(C)C(=O)c1sc2c(ccc(=O)n2CC2CC2)c1Nc1ccccc1 | ≤ 1000 nM
CCOC(=O)c1sc2c(ccc(=O)n2-c2cccc(C)c2)c1Nc1ccc(F)c(C)c1 | ≤ 1000 nM
CCOC(=O)c1sc2c(ccc(=O)n2-c2ccccc2)c1Nc1cccc(Cl)c1 | ≤ 1000 nM
Cc1ccc(Nc2c(C(N)=O)sc3c2ccc(=O)n3CC2CC2)cc1C | ≤ 1000 nM
O=C(NC1CCNC1)c1sc2c(ccc(=O)n2-c2ccccc2)c1Nc1ccc(F)cc1F (stereo not given) | ≤ 1000 nM
Cc1ccccc1-n1c(=O)ccc2c(Nc3ccc(F)cc3F)c(C(N)=O)sc21 | ≤ 1000 nM
CCOC(=O)c1sc2c(ccc(=O)n2-c2ccc(C(O)CO)cc2)c1Nc1ccccc1 (stereo not given) | ≤ 1000 nM
O=C(c1sc2c(ccc(=O)n2-c2ccccc2)c1Nc1ccccc1)N1CCCCC1 | ≤ 1000 nM

SMILES | IC50
CCOC(=O)c1sc2c(ccc(=O)n2-c2ccc(Cl)cc2)c1Nc1ccc(F)c(C)c1 | ≤ 1000 nM
Cc1cccc(Nc2c(C(=N)N)sc3c2ccc(=O)n3-c2ccccc2)c1 | ≤ 1000 nM
CCOC(=O)c1sc2c(ccc(=O)n2-c2ccc([S+](C)[O-])cc2)c1Nc1ccccc1 (stereo not given) | ≤ 1000 nM
N#Cc1sc2c(ccc(=O)n2-c2ccccc2)c1Nc1c(F)cccc1F | ≤ 1000 nM
CCOC(=O)c1sc2c(ccc(=O)n2-c2ccsc2)c1Nc1ccc(F)cc1F | ≤ 1000 nM
NC(=O)c1sc2c(ccc(=O)n2-c2ccccc2)c1Nc1cccc(O)c1 | ≤ 1000 nM
Cc1ccc(Nc2c(C#N)sc3c2ccc(=O)n3-c2ccccc2)cc1Br | ≤ 1000 nM
NC(=O)c1sc2c(ccc(=O)n2-c2ccccc2)c1Nc1cccc(SC(F)(F)F)c1 | ≤ 1000 nM
NC(=O)c1sc2c(ccc(=O)n2-c2ccccc2)c1Nc1ccccc1Cl | ≤ 1000 nM
CCOC(=O)c1sc2c(ccc(=O)n2-c2ccccc2)c1Nc1ccc(F)cc1F | ≤ 1000 nM
N#Cc1sc2c(ccc(=O)n2-c2ccccc2)c1Nc1cccc(OC(F)(F)F)c1 | ≤ 1000 nM
N#Cc1sc2c(ccc(=O)n2-c2ccccc2)c1Nc1ccc(F)cc1F | ≤ 1000 nM
CCN(CC)CCN(C)C(=O)c1sc2c(ccc(=O)n2-c2ccccc2)c1Nc1ccccc1 | ≤ 1000 nM
N#Cc1sc2c(ccc(=O)n2CC2CC2)c1Nc1ccc(F)c(Cl)c1 | ≤ 1000 nM
Cc1cc(Nc2c(C#N)sc3c2ccc(=O)n3CC2CC2)ccc1F | ≤ 1000 nM
NC(=O)c1sc2c(ccc(=O)n2-c2ccsc2)c1Nc1ccccc1 | ≤ 1000 nM
N#Cc1ccccc1Nc1c(C(N)=O)sc2c1ccc(=O)n2-c1ccc(F)cc1 | ≤ 1000 nM
Cc1cccc(Nc2c(C(N)=S)sc3c2ccc(=O)n3-c2ccccc2)c1 | ≤ 1000 nM
Cc1cccc(Nc2c(C(N)=O)sc3c2ccc(=O)n3-c2ccccc2)c1 | ≤ 1000 nM
O=C(c1sc2c(ccc(=O)n2-c2ccccc2)c1Nc1ccccc1)N1CCCC1 | ≤ 1000 nM
C=Cc1ccc(-n2c(=O)ccc3c(Nc4ccccc4)c(C(N)=O)sc32)cc1 | ≤ 1000 nM
N#Cc1ccccc1Nc1c(C(N)=O)sc2c1ccc(=O)n2-c1ccccc1 | ≤ 1000 nM
CCOC(=O)c1sc2c(ccc(=O)n2-c2ccc(CN3CCCC3)cc2)c1Nc1ccccc1 | ≤ 1000 nM
COc1ccc(-n2c(=O)ccc3c(Nc4ccc(F)cc4F)c(C#N)sc32)cc1 | ≤ 1000 nM
Cc1c(Br)cccc1Nc1c(C#N)sc2c1ccc(=O)n2-c1ccccc1 | ≤ 1000 nM

SMILES | IC50
CCOC(=O)c1sc2c(ccc(=O)n2-c2ccc(SC)cc2)c1Nc1ccccc1 | ≤ 1000 nM
CN(C)c1ccc(-n2c(=O)ccc3c(Nc4ccccc4)c(C(=O)NCCCn4ccnc4)sc32)cc1 | ≤ 1000 nM
CCOC(=O)c1sc2c(ccc(=O)n2CC2CC2)c1Nc1ccccc1 | ≤ 1000 nM
O=c1ccc2c(Nc3ccccc3)csc2n1-c1ccccc1 | ≤ 1000 nM
N#Cc1sc2c(ccc(=O)n2-c2ccccc2)c1Nc1ccccc1 | ≤ 1000 nM
CCOC(=O)c1sc2c(ccc(=O)n2-c2ccc(F)cc2)c1Nc1cccc(C)c1C#N | ≤ 1000 nM
CCOC(=O)c1sc2c(ccc(=O)n2-c2ccccc2)c1Nc1ccccc1Cl | ≤ 1000 nM
NC(=O)c1sc2c(ccc(=O)n2-c2ccccc2)c1Nc1cccc(Cl)n1 | ≤ 1000 nM
Cc1ccc(-n2c(=O)ccc3c(Nc4cccc(C)c4)c(C(N)=O)sc32)cc1 | ≤ 1000 nM
N#Cc1sc2c(ccc(=O)n2-c2ccccc2)c1Nc1ccccc1OC(F)F | ≤ 1000 nM
CCOC(=O)c1sc2c(ccc(=O)n2-c2ccccc2)c1Nc1ccc(OC)c(F)c1 | ≤ 1000 nM
Cc1cccc(Nc2c(C(N)=O)sc3c2ccc(=O)n3C2CC2)c1 | ≤ 1000 nM
CCOC(=O)c1sc2c(ccc(=O)n2-c2ccccc2)c1Nc1cccc(C)c1C#N | ≤ 1000 nM
Cc1cccc(Nc2c(C(N)=O)sc3c2ccc(=O)n3-c2ccccc2C)c1 | ≤ 1000 nM
O=C(NCCN1CCCCC1)c1sc2c(ccc(=O)n2-c2ccccc2)c1Nc1ccccc1 | ≤ 1000 nM
Cc1cc(Nc2c(C#N)sc3c2ccc(=O)n3-c2ccccc2Cl)ccc1F | ≤ 1000 nM
N#Cc1sc2c(ccc(=O)n2-c2ccc(OC[C@@H](O)CO)cc2)c1Nc1ccc(F)cc1F | ≤ 1000 nM
CCN(CC)C(=N)c1sc2c(ccc(=O)n2-c2ccccc2)c1Nc1cccc(C)c1 | ≤ 1000 nM
NC(=O)c1sc2c(ccc(=O)n2-c2ccccc2)c1Nc1cc(Cl)cc(Cl)c1 | ≤ 1000 nM
NC(=O)c1sc2c(ccc(=O)n2CC2CC2)c1Nc1ccccc1 | ≤ 1000 nM
Cc1cccc(Nc2c(C(N)=O)sc3c2ccc(=O)n3-c2ccccc2Cl)c1 | ≤ 1000 nM
O=c1ccc2c(Nc3cccc(Cl)c3)csc2n1-c1ccccc1 | ≤ 1000 nM
Cc1cc(Nc2c(C(N)=O)sc3c2ccc(=O)n3-c2ccc(F)cc2)ccc1F | ≤ 1000 nM
NC(=O)c1sc2c(ccc(=O)n2-c2ccccc2)c1Nc1c(Cl)cccc1Cl | ≤ 1000 nM
N#Cc1sc2c(ccc(=O)n2-c2ccc(OC[C@H](O)CO)cc2)c1Nc1ccc(F)cc1F | ≤ 1000 nM
